PMC12446476 (Nature Communications, 2025)
In brackets after ≈: the same amount, converted by molar mass. Several values for one entry are separate records, joined by “and”; a condition that tells them apart may be missing. Equal entries are not always repeated. Where two headings read alike, the source gives them in different places.

What was measured:
[1] = system: N. gonorrhoeae; test: MIC determination, agar dilution (CLSI); type: cell-based, Neisseria gonorrhoeae
Source text: The 2024 WHO N. gonorrhoeae reference strains were used for quality control. Only whole MIC doubling dilutions are reported. Clinical breakpoints or the epidemiological cutoff (ECOFF, to indicate azithromycin resistance) from EUCAST (v14.0, https://www.eucast.org/clinical_breakpoints) were used to classify isolates as antimicrobial susceptible or resistant. […] Two times the standard inoculum defined by CLSI was used to establish consistent growth in untreated control samples for some strains. In vitro time-kill assays were performed according to CLSI guidelines[65] using Columbia Broth (BD Difco) supplemented with 1% IsoVitaleX Enrichment (BD). Viable bacterial counts were generated by plating 10-fold serially diluted samples on GC agar plates containing 1% IsoVitaleX Enrichment (BD).

[2] = system: Salmonella typhimurium (TA1535, TA1537, TA98 and TA100); type: cell-based
Protocol: (§1) Ames assays were performed using four strains of Salmonella typhimurium (TA1535, TA1537, TA98 and TA100) and a single strain of E. coli (WRP2 uvrA) in the presence and absence of S9 tissue homogenate. Dose levels (µg/plate) up to 4000 were assessed for WP2 uvrA and TA98, 500 for TA1535, 250 for TA1537 and 62.5 for TA100.

[3] = system: intracellular N. gonorrhoeae; test: Intracellular killing in HeLa229 cells; type: cell-based, Neisseria gonorrhoeae; conditions: dilution 0, replicates 1-3, counts 1-2
Protocol: Intracellular killing was assessed within HeLa229 cells (European Collection of Authenticated Cell Cultures, London, UK) that were seeded at ~3 × 10^5 cells/mL and grown to 70–80% confluence in RPMI-glutamine media supplemented with 10% (v/v) heat-inactivated fetal bovine serum (FBS, Gibco, MA, USA). Cells were incubated at 37 °C with 5% CO2 for 24 h, then washed with serum-free RPMI-1640 prior to infection. N. gonorrhoeae was scraped from agar plates and resuspended in Dulbecco’s Phosphate Buffered Saline (DPBS, Sigma-Aldrich), pelleted, then resuspended in RPMI with 2% FBS. Bacterial suspensions were used to infect HeLa229 cells at a multiplicity of infection of 100:1. Plates were briefly centrifuged (500 × g for 5 min), then incubated for one hour. This incubation and all subsequent incubations were performed at 37 °C with 5% CO2. Non-adherent cells were removed by washing with serum-free RPMI, and the remaining extracellular bacteria were killed via resuspension in RPMI-glutamine supplemented with 2% FBS and 200 μg/mL gentamycin and incubation for one hour. […] Azithromycin-treated samples were included for control/comparison. […] Samples were diluted and plated onto chocolate II agar for viable bacteria quantification. Intracellular killing assays were performed at Microbiologics, Kalamazoo, MI, USA, using a method adapted from previous studies[68],[69].

[4] = system: E. coli WP2 uvrA; test: Ames assay, E. coli strain; type: cell-based; conditions: with S9, positive control 1, 2 or 20 µg/plate
Protocol: as §1

[5] = screening panel N. gonorrhoeae isolate A
[6] = screening panel N. gonorrhoeae isolate B
[7] = screening panel N. gonorrhoeae isolate C
[8] = screening panel N. gonorrhoeae isolate D
[9] = screening panel N. gonorrhoeae isolate E
[10] = screening panel N. gonorrhoeae isolate F
[11] = screening panel N. gonorrhoeae isolate G
[12] = screening panel N. gonorrhoeae isolate H
[13] = screening panel N. gonorrhoeae isolate I
[14] = screening panel N. gonorrhoeae isolate J
[15] = screening panel N. gonorrhoeae isolate K
[16] = screening panel N. gonorrhoeae isolate L
[17] = screening panel N. gonorrhoeae isolate M
[18] = screening panel N. gonorrhoeae isolate N
[19] = TA100, without S9, positive control 1 µg/plate
[20] = TA1535, without S9, positive control 1 µg/plate
[21] = TA1537, without S9, positive control 50 µg/plate
[22] = TA98, without S9, positive control 2 µg/plate
[23] = TA98, with S9, positive control 1, 2 or 20 µg/plate
[24] = TA100, with S9, positive control 1, 2 or 20 µg/plate
[25] = TA1535, with S9, positive control 1, 2 or 20 µg/plate
[26] = TA1537, with S9, positive control 1, 2 or 20 µg/plate

Structure (SMILES)	Minimum inhibitory concentration [1, 5]	Minimum inhibitory concentration [1, 6]	Minimum inhibitory concentration [1, 7]	Minimum inhibitory concentration [1, 8]	Minimum inhibitory concentration [1, 9]	Minimum inhibitory concentration [1, 10]	Minimum inhibitory concentration [1, 11]	Minimum inhibitory concentration [1, 12]	Minimum inhibitory concentration [1, 13]	Minimum inhibitory concentration [1, 14]	Minimum inhibitory concentration [1, 15]	Minimum inhibitory concentration [1, 16]	Minimum inhibitory concentration [1, 17]	Minimum inhibitory concentration [1, 18]	other results
Cc1oc2ccccc2c1CN(C)C(=O)/C=C/c1cnc2c(c1)NCCC(=O)N2 [Compound 5]	1 µg/mL (≈ 2.56 µM)	1 µg/mL (≈ 2.56 µM)	1 µg/mL (≈ 2.56 µM)	1 µg/mL (≈ 2.56 µM)	0.5 µg/mL (≈ 1.28 µM)	2 µg/mL (≈ 5.12 µM)	2 µg/mL (≈ 5.12 µM)	2 µg/mL (≈ 5.12 µM)	0.5 µg/mL (≈ 1.28 µM)	1 µg/mL (≈ 2.56 µM)	2 µg/mL (≈ 5.12 µM)	1 µg/mL (≈ 2.56 µM)	1 µg/mL (≈ 2.56 µM)	0.5 µg/mL (≈ 1.28 µM)	–
[N-]=[N+]=[N-].[Na+] [Sodium azide, reference compound]	–	–	–	–	–	–	–	–	–	–	–	–	–	–	Ames bacterial mutation assessment, Mean [2, 19]: 555; Colony count [2, 19]: 508 and 554 and 602; Ames bacterial mutation assessment, Mean [2, 20]: 433; Colony count [2, 20]: 428 and 408 and 464
Nc1c2ccccc2nc2ccccc12 [9-Aminoacridine, reference compound]	–	–	–	–	–	–	–	–	–	–	–	–	–	–	Ames bacterial mutation assessment, Mean [2, 21]: 142; Colony count [2, 21]: 128 and 153 and 146
Cc1c(CN(C)C(=O)/C=C/c2cnc3c(c2)N[C@@H](C)[C@@H](O)C(=O)N3)oc2ccccc12 [Compound 9]	2 µg/mL (≈ 4.76 µM)	1 µg/mL (≈ 2.38 µM)	1 µg/mL (≈ 2.38 µM)	1 µg/mL (≈ 2.38 µM)	≤0.5 µg/mL	2 µg/mL (≈ 4.76 µM)	2 µg/mL (≈ 4.76 µM)	2 µg/mL (≈ 4.76 µM)	1 µg/mL (≈ 2.38 µM)	1 µg/mL (≈ 2.38 µM)	2 µg/mL (≈ 4.76 µM)	1 µg/mL (≈ 2.38 µM)	1 µg/mL (≈ 2.38 µM)	1 µg/mL (≈ 2.38 µM)	–
O=[N+]([O-])c1ccc2c(c1)Cc1ccccc1-2 [2-Nitrofluorene, reference compound]	–	–	–	–	–	–	–	–	–	–	–	–	–	–	Ames bacterial mutation assessment, Mean [2, 22]: 173; Colony count [2, 22]: 177 and 172 and 169
CC[C@H]1OC(=O)[C@H](C)[C@@H](O[C@H]2C[C@@](C)(OC)[C@@H](O)[C@H](C)O2)[C@H](C)[C@@H](O[C@@H]2O[C@H](C)C[C@H](N(C)C)[C@H]2O)[C@](C)(O)C[C@@H](C)CN(C)[C@H](C)[C@@H](O)[C@]1(C)O [Azithryomycin]	–	–	–	–	–	–	–	–	–	–	–	–	–	–	Colony forming units (CFU) of N. gonorrhoeae internalised in HeLa229 cells, colony count ([3]; isolate ATCC 49226, 3 hr, 2X MIC): 19 CFU (2×) and 22 CFU and 27 CFU and 29 CFU and 32 CFU; Colony forming units (CFU) of N. gonorrhoeae internalised in HeLa229 cells, colony count ([3]; isolate ATCC 49226, 3 hr, 4X MIC): 28 CFU and 29 CFU and 24 CFU (2×) and 32 CFU and 22 CFU; Colony forming units (CFU) of N. gonorrhoeae internalised in HeLa229 cells, colony count ([3]; isolate ATCC 49226, 3 hr, 8X MIC): 20 CFU and 26 CFU and 27 CFU and 18 CFU and 28 CFU and 17 CFU; Colony forming units (CFU) of N. gonorrhoeae internalised in HeLa229 cells, colony count ([3]; isolate ATCC 49226, 6 hr, 2X MIC): 1 CFU (3×) and 3 CFU and 2 CFU (2×); Colony forming units (CFU) of N. gonorrhoeae internalised in HeLa229 cells, colony count ([3]; isolate ATCC 49226, 6 hr, 4X MIC): 0 CFU (2×) and 1 CFU and 3 CFU (2×) and 5 CFU; Colony forming units (CFU) of N. gonorrhoeae internalised in HeLa229 cells, colony count ([3]; isolate ATCC 49226, 6 hr, 8X MIC): 1 CFU (3×) and 2 CFU (3×); Colony forming units (CFU) of N. gonorrhoeae internalised in HeLa229 cells, colony count ([3]; isolate ATCC 49226, 10 hr, 2X MIC): 0 CFU; Colony forming units (CFU) of N. gonorrhoeae internalised in HeLa229 cells, colony count ([3]; isolate ATCC 49226, 10 hr, 4X MIC): 0 CFU; Colony forming units (CFU) of N. gonorrhoeae internalised in HeLa229 cells, colony count ([3]; isolate ATCC 49226, 10 hr, 8X MIC): 0 CFU; Colony forming units (CFU) of N. gonorrhoeae internalised in HeLa229 cells, colony count ([3]; isolate ATCC 49226, 24 hr, 2X MIC): 0 CFU; Colony forming units (CFU) of N. gonorrhoeae internalised in HeLa229 cells, colony count ([3]; isolate ATCC 49226, 24 hr, 4X MIC): 0 CFU; Colony forming units (CFU) of N. gonorrhoeae internalised in HeLa229 cells, colony count ([3]; isolate ATCC 49226, 24 hr, 8X MIC): 0 CFU; Colony forming units (CFU) of N. gonorrhoeae internalised in HeLa229 cells, colony count ([3]; isolate NCTC 13820, 3 hr, 2X MIC): 12 CFU and 15 CFU and 33 CFU and 32 CFU and 27 CFU and 29 CFU; Colony forming units (CFU) of N. gonorrhoeae internalised in HeLa229 cells, colony count ([3]; isolate NCTC 13820, 3 hr, 4X MIC): 21 CFU and 16 CFU and 33 CFU and 30 CFU and 20 CFU and 27 CFU; Colony forming units (CFU) of N. gonorrhoeae internalised in HeLa229 cells, colony count ([3]; isolate NCTC 13820, 3 hr, 8X MIC): 20 CFU and 13 CFU and 26 CFU and 30 CFU (2×) and 21 CFU; Colony forming units (CFU) of N. gonorrhoeae internalised in HeLa229 cells, colony count ([3]; isolate NCTC 13820, 6 hr, 2X MIC): 0 CFU (2×) and 1 CFU (2×) and 3 CFU (2×); Colony forming units (CFU) of N. gonorrhoeae internalised in HeLa229 cells, colony count ([3]; isolate NCTC 13820, 6 hr, 4X MIC): 0 CFU (2×) and 1 CFU and 3 CFU
Nc1ccc2cc3ccccc3cc2c1 [2-Aminoanthracene, reference compound]	–	–	–	–	–	–	–	–	–	–	–	–	–	–	Ames bacterial mutation assessment, Mean [2, 23]: 515; Colony count [2, 23]: 486 and 532 and 526; Ames bacterial mutation assessment, Mean [2, 24]: 1256; Colony count [2, 24]: 1316 and 1188 and 1256; Ames bacterial mutation assessment, Mean [2, 25]: 104; Colony count [2, 25]: 93 and 104 and 116; Ames bacterial mutation assessment, Mean [2, 26]: 95; Colony count [2, 26]: 90 and 94 and 102; Ames bacterial mutation assessment, Mean [4]: 187; Colony count [4]: 181 and 184 and 195
O=C1CCNc2cc(C=CC(=O)N3CC4C=C(c5ccccc5)CC4C3)cnc2N1 (stereo not shown) [Compound 3]	4 µg/mL (≈ 9.99 µM)	2 µg/mL (≈ 4.99 µM)	1 µg/mL (≈ 2.5 µM)	2 µg/mL (≈ 4.99 µM)	1 µg/mL (≈ 2.5 µM)	4 µg/mL (≈ 9.99 µM)	4 µg/mL (≈ 9.99 µM)	4 µg/mL (≈ 9.99 µM)	2 µg/mL (≈ 4.99 µM)	2 µg/mL (≈ 4.99 µM)	>8 µg/mL	2 µg/mL (≈ 4.99 µM)	2 µg/mL (≈ 4.99 µM)	1 µg/mL (≈ 2.5 µM)	–
O=C1CCNc2cc(/C=C/C(=O)N3CCC=C(c4ccccc4)CC3)cnc2N1 [Compound 4]	4 µg/mL (≈ 10.3 µM)	2 µg/mL (≈ 5.15 µM)	2 µg/mL (≈ 5.15 µM)	2 µg/mL (≈ 5.15 µM)	1 µg/mL (≈ 2.57 µM)	4 µg/mL (≈ 10.3 µM)	4 µg/mL (≈ 10.3 µM)	4 µg/mL (≈ 10.3 µM)	2 µg/mL (≈ 5.15 µM)	2 µg/mL (≈ 5.15 µM)	4 µg/mL (≈ 10.3 µM)	2 µg/mL (≈ 5.15 µM)	2 µg/mL (≈ 5.15 µM)	1 µg/mL (≈ 2.57 µM)	–
